In ChEMBL document CHEMBL3987221, “The Australian National University Dept Of Immunology Pathogen Box Compounds Screened” (2018):
Calls of active or inactive are those of the source. How the calls were made is not given here.

Tests used:
[1] = molecular target: T1, Ferrochelatase, mitochondrial (Homo sapiens) (UniProt P22830); details: at 10 µM
T1 sequence (whole entry): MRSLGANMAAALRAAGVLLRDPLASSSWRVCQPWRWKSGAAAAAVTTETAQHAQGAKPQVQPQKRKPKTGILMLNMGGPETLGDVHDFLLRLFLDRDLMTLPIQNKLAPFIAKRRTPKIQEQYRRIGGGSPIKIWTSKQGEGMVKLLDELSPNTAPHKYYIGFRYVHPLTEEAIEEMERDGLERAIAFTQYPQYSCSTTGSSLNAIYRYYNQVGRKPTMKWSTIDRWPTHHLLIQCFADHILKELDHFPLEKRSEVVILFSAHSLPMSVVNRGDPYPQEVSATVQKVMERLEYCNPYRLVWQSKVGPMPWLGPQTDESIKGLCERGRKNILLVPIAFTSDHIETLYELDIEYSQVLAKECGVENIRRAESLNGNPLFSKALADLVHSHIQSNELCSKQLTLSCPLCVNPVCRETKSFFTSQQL
Description: Compound was evaluated for the inhibition of human FECH at 10uM

[2] = molecular target: T2, Porphobilinogen deaminase (Homo sapiens) (UniProt P08397); details: at 100 µM
T2 sequence (whole entry): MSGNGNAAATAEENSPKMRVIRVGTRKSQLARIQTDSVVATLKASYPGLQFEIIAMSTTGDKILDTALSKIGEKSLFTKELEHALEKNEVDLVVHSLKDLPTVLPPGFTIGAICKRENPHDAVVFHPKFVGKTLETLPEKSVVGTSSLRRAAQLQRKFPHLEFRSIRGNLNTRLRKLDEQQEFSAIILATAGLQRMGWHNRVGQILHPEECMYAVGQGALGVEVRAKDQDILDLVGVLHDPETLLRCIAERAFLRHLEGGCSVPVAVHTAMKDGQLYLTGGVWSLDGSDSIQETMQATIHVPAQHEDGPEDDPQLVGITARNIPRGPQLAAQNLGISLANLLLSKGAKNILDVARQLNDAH
Description: Compound was evaluated for the inhibition of human HMBS at 100uM

| Compound | inhibition [1] | inhibition [2] |
| --- | --- | --- |
| CC(C)c1ncc(-c2ccncc2)c([C@H]2CC[C@H](CNC(=O)c3cccnc3)CC2)n1 | inactive | inactive |
| CC[C@H](CO)NCCN[C@H](CC)CO | inactive | inactive |
| CC1=NN(c2nc3ccccc3s2)C(=O)C1Cc1cccc2ccccc12 (configuration not stated) | inactive | inactive |
| CO/C=C(/C(=O)OC)c1ccccc1Oc1cc(Oc2ccccc2C#N)ncn1 | inactive | inactive |
| CCCCN(CCCC)c1c(C#N)cc(S(=O)(=O)Nc2ccccc2)cc1C#N | inactive | inactive |
| CS(=O)(=O)N1CCC(Cn2nc(Cc3cccc4ccccc34)c3c(N)ncnc32)CC1 | inactive | inactive |
| Nc1ncc(-c2cn[nH]c2)cc1-c1nc2cc(Cl)cnc2[nH]1 | inactive | inactive |
| O=C(CN1CCOCC1)Nc1ccc2ncnc(Nc3ccc(OCc4cccc(F)c4)c(Cl)c3)c2c1 | inactive | inactive |
| CNCCC(Oc1ccc(C(F)(F)F)cc1)c1ccccc1 (configuration not stated) | inactive | inactive |
| Cc1nnc(NCc2cccc(Cl)c2)c2ccccc12 | inactive | inactive |
| Cc1cc(C)nc(-n2nc(C)cc2Nc2ccccc2)n1 | inactive | inactive |
| COc1ccc(-c2cncc3ccc(C(=O)NCCCn4ccnc4)nc23)cc1 | inactive | inactive |
| COc1ccc(C(=N)N)cc1-c1cn(-c2ccc(C(=N)N)cc2)nn1 | inactive | inactive |
| CS(=O)(=O)c1ccc(C(=O)N(CC2CCCO2)c2nc3ccccc3s2)cc1[N+](=O)[O-] (configuration not stated) | inactive | inactive |
| CNC(=O)CNc1nc(-c2ccccn2)nc2scc(-c3ccccc3)c12 | inactive | inactive |
| O=C(Nc1nnc(S)s1)c1cc(Br)ccc1Cl | inactive | inactive |
| CCc1ccc(C(NCc2nc(N)nc(N(C)C)n2)C(C)C)cc1 (configuration not stated) | inactive | inactive |
| N#Cc1ccc(-c2cnc(N)c(-c3ccc(C(N)=O)cc3)n2)cc1 | inactive | inactive |
| Cc1ccc(S(=O)(=O)n2cc(-c3ccnc(N)c3)c3cc(Br)cnc32)cc1 | inactive | inactive |
| CNC(=O)c1cc(S(=O)(=O)N2CCN(c3ccccn3)CC2)cs1 | inactive | inactive |
| CN1CCN(S(=O)(=O)c2ccc(-c3ccc4c(Nc5ccc6nn[nH]c6c5)ccnc4c3)cc2)CC1 | inactive | inactive |
| O=C(c1cc2ccccc2o1)N1CCN(Cc2ccc3c(c2)OCO3)CC1 | inactive | inactive |

| Compound | inhibition [1] | inhibition [2] |
| --- | --- | --- |
| CC(Oc1cccc(Cl)c1)C(=O)Nc1ccc2oc(-c3ccncc3)nc2c1 (configuration not stated) | inactive | inactive |
| O=C(CCC1CCCCC1)Nc1cccc(-c2nnc(-c3ccco3)o2)c1 | inactive | inactive |
| O=C(Nc1ccc(N2CCNCC2)cc1)c1ccn2ncc(-c3cccc(Cl)c3)c2n1 | inactive | inactive |
| CCCn1c(CNc2ccccc2O)nc2ccccc21 | inactive | inactive |
| Cc1cc2ccccc2n1CC(=O)N1CC(C(=O)N2CCCCC2)Oc2ccccc21 (configuration not stated) | inactive | inactive |
| CN1CCC(NCc2cccc(-c3ccc(S(=O)(=O)NCc4ccccc4)cc3)c2)CC1 | inactive | inactive |
| Cc1nn(Cc2ccccc2)c(Cl)c1C(=O)NC1CCCCCC1 | inactive | inactive |
| CNc1snc(C)c1C(=O)NCCOc1ccc(OC)cc1 | inactive | inactive |
| COc1cccc(CC(=O)N2CCC(n3c(C)nc4ccc(F)cc43)CC2)c1 | inactive | inactive |
| CC1CC1C(=O)NC1CCN(CC2(c3ccccc3)CCCCC2)CC1 (configuration not stated) | inactive | inactive |
| CCN(CC)S(=O)(=O)c1ccc(Cl)c(C(=O)Nc2ccc3nc(C)sc3c2)c1 | inactive | inactive |
| NC(CC(=O)c1ccc(Cl)cc1Cl)C(Cl)(Cl)Cl (configuration not stated) | inactive | inactive |
| Cc1nnc(NC(=O)c2cn(-c3ccccc3)nc2-c2ccccc2C)o1 | inactive | inactive |
| CC(=O)Nc1ccc(NC(=O)c2cc(-c3cc(Cl)ccc3O)n[nH]2)cc1 | inactive | inactive |
| Nc1ncc(-c2ccc(C(F)(F)F)nc2)cc1-c1ccc(C(F)(F)F)nc1 | inactive | inactive |
| O=C(NC1=NCCS1)c1sc2cc(F)ccc2c1Cl | inactive | inactive |
| O=C(Nc1c(O)cccc1-c1nc2c(C(=O)O)cccc2o1)c1cc(-c2ccccc2)on1 | inactive | inactive |
| COC(=O)c1ccc(F)cc1NS(=O)(=O)c1cccc(-c2cnn(Cc3ccccc3)c2)c1 | inactive | inactive |
| CC1COC(Cn2cncn2)(c2ccc(Oc3ccc(Cl)cc3)cc2Cl)O1 (configuration not stated) | inactive | inactive |
| Cc1cc(NC(=O)c2ccc(Oc3ccc(Cl)cc3O)o2)no1 | inactive | inactive |
| Nc1nc(N)c2c3c(sc2n1)CN(Cc1ccccc1)CC3 | inactive | inactive |
| CN1CCN(c2nccc3nc(-c4ccc(F)c(F)c4)[nH]c23)CC1 | inactive | inactive |

| Compound | inhibition [1] | inhibition [2] |
| --- | --- | --- |
| COC(=O)c1cccc2oc(-c3cccc(OC)c3NC(=O)c3cc(-c4ccccc4)on3)nc12 | inactive | inactive |
| Cc1noc(C)c1COc1cccc(C(=O)N=c2[nH]cccc2C)c1 | inactive | inactive |
| FC(F)(F)c1cnc(Sc2nnc(-c3ccncc3)o2)c(Cl)c1 | inactive | inactive |
| O=C(NC1CC1)c1ccc(CSCc2ccccc2Cl)o1 | inactive | inactive |
| O=C(NCCc1ccccc1)c1cc(-c2cccnc2)cnc1NCC1CC1 | inactive | inactive |
| c1ccc(Oc2ccc(-c3cc(C4CCOCC4)[nH]n3)cc2)cc1 | inactive | inactive |
| COc1cc(Br)cc2cc(C(=O)Nc3cccc(C(F)(F)F)c3)c(=O)oc12 | inactive | inactive |
| COc1cc(CN2CCC3(C=Cc4ccccc43)CC2)cc2c1OCO2 | inactive | inactive |
| O=C(c1ccco1)N(CCCn1ccnc1)c1nc2c(Cl)cccc2s1 | inactive | inactive |
| COC(=O)c1c(NC(=O)c2c(F)c(F)c(F)c(F)c2F)sc2c1CCCCC2 | inactive | inactive |
| COc1cc(-c2cc(-c3ccc(S(C)(=O)=O)cc3)cnc2N)ccc1O | inactive | inactive |
| COc1ccc(Cn2cnc3c(-c4ccco4)nc(Cl)nc32)cc1 | inactive | inactive |
| COc1ccc(C2(C(=O)Nc3ccc(Br)cc3)CCCC2)cc1 | inactive | inactive |
| N=C(N)Nc1ccc(-c2ccc(-c3ccc(NC(=N)N)cc3Cl)o2)c(Cl)c1 | inactive | inactive |
| CC1COC2(CCN(c3nc(=O)c4cc(C(F)(F)F)cc([N+](=O)[O-])c4s3)CC2)O1 (configuration not stated) | inactive | inactive |
| c1ccc(Oc2ccc(-c3cc(N4CCOCC4)[nH]n3)cc2)cc1 | inactive | inactive |
| CC(C)(C)OC(=O)N1CCN(c2cc(-c3ccc(Oc4ccccc4)cc3)n[nH]2)CC1 | inactive | inactive |
| O=C(N[C@H](Cc1ccccc1)C(=O)Nc1ccccc1N1CCOCC1)c1cccs1 | inactive | inactive |
| Cc1ccc(Oc2ccc(NC(=O)CNc3ccccc3N3CCCC3=O)cc2)cc1 | inactive | inactive |
| c1ccc(-c2nc(NC3CCCCC3)cc(C3CC3)n2)nc1 | inactive | inactive |
| O=C1O[C@@H](COc2ccon2)CN1c1cc(F)c(C2=CCN(Cc3ccccc3)CC2)c(F)c1 | inactive | inactive |
| Cc1cc(NCCc2ccccc2)nc(NC(=N)Nc2ccc(Cl)cc2)n1 | inactive | inactive |
